Earlier results as cited in patent US20030228369A1, “Process for conversion of high viscosity fluids and compositions thereof” (priority 2002, published 2003).

Conditions: pH about 1.2

- solubility at pH of the stomach / gastric fluid: not soluble
Structure (SMILES): CC(C)=CCC1=C(O)[C@](O)(CC=C(C)C)C(=O)C(C(=O)CC(C)C)=C1O [humulon]
